Results on 38 compounds are retold here after ChEMBL document CHEMBL5113380, “Functionalized quinoxalinones as privileged structures with broad-ranging pharmacological activities” (Eur J Med Chem, 2022).

Structures are written as SMILES. pIC50, pKi: −log10 of the molar value. Converted amounts (≈) assume the structure as drawn. Where only a bound is given, the exact number is not on record here.

What is called pKi is the Ki on a negative log10 scale, so that one unit is a factor of ten. What is called MIC is the smallest concentration in the dilution series that meets the test's criterion for growth inhibition. For orientation: pIC50 means the IC50 on a negative log10 scale, so that one unit is a factor of ten. Usually inhibition stands for the relative decrease from the control value, in per cent.

Experiment [1] in a line: Displacement of [3H]glycine from AMPA receptor (unknown origin). In kind it is protein-complex assay, Homo sapiens.
In experiment [2] the target is T1, Glutamate receptor ionotropic AMPA (Homo sapiens, UniProt P42261+P42262+P42263+P48058). In words: Displacement of [3H]AMPA from AMPA receptor (unknown origin). The class given is protein-complex assay. (In a radioligand displacement assay an active substance lowers the binding of a labelled ligand.)
The next experiment relates to Escherichia coli. In words: Antibacterial activity against Escherichia coli. The class given is functional.
Experiment [3] concerns the target Glutamate [NMDA] receptor. The experiment is described as follows: Displacement of [3H]DCKA from NMDA receptor (unknown origin). In kind it is protein-complex assay, Homo sapiens.
Another experiment relates to Pseudomonas aeruginosa. In words: Antibacterial activity against Pseudomonas aeruginosa. The class given is functional.
Experiment [4] in a line: Inhibition of ALR2 (unknown origin). Set-up: species or system Homo sapiens.
Experiment [5] is described as follows: Inhibition of ALR1 (unknown origin) relative to control. Set-up: concentration or dose not given beside the values. The conditions noted are these: Homo sapiens; concentration not given here.
The subject of experiment [6] is Trichophyton mentagrophytes. The experiment is described as follows: Antimicrobial activity against Trichophyton mentagrophytes. The class given is functional.
Another experiment relates to Staphylococcus aureus. In words: Antibacterial activity against Staphylococcus aureus. In kind it is functional.
The test system of another experiment is Aspergillus niger. In words: Antifungal activity against Aspergillus niger. In kind it is functional.
For another experiment, the system named is Candida albicans. In words: Antifungal activity against Candida albicans. In kind it is functional.
The test system of the next experiment is Bacillus cereus. The experiment is described as follows: Antibacterial activity against Bacillus cereus. In kind it is functional.
Experiment [7] deals with T1, Glutamate receptor ionotropic AMPA. The experiment is described as follows: Binding affinity to AMPA receptor (unknown origin). In kind it is protein-complex assay.
Experiment [8] can be described thus: Antioxidant activity assessed as DPPH radical scavenging activity. The class given is functional. The conditions noted are these: read-out: IC50.

In the case of `O=[N+]([O-])c1cc2nc(O)c(O)nc2nc1-n1ccnc1`, the pKi in experiment [1] was 5.00; in [2], 6.85.
`CCOC(=O)c1nc2ccc(C(F)(F)F)cc2[nH]c1=O` had a minimal inhibitory concentration (MIC) in the experiment on Escherichia coli of 125 µg/mL (≈ 437 µM).
Compound `C[C@H]1Cc2cc(Br)cc3[nH]c(=O)c(=O)n(c23)C1CC(=O)O` (stereo partly specified) showed a negative-log Ki (pKi) in experiment [3] of 8.48.
In turn, `CCc1nc2ccc(C(F)(F)F)cc2[nH]c1=O` yielded a minimal inhibitory concentration (MIC) with Pseudomonas aeruginosa of 125 µg/mL (≈ 516 µM).
For `O=C(O)Cn1c(=O)c(Oc2ccc(Br)cc2F)nc2ccc(F)cc21`, the negative-log IC50 (pIC50) in experiment [4] is 8.19. The compound also had an inhibition in experiment [5] of 58.7%.
`CCCCCCCCCn1c(=O)c2c(-c3ccccc3)nc(-c3ccc[n+](CCCCCCCCC)c3)n2c2ccccc21.[Br-]`: the MBC in the experiment with Escherichia coli is above 500 µg/mL; in experiment [6], above 500 µg/mL; with Staphylococcus aureus, 50 µg/mL; in the experiment on Pseudomonas aeruginosa, above 500 µg/mL; against Aspergillus niger, above 500 µg/mL; in the experiment with Candida albicans, 500 µg/mL. In the experiment on Bacillus cereus, this compound registered an MBC of 500 µg/mL. Further, the MIC was above 500 µg/mL against Escherichia coli; 500 µg/mL in experiment [6]; 1.5 µg/mL in the experiment on Staphylococcus aureus; above 500 µg/mL with Pseudomonas aeruginosa; above 500 µg/mL in the experiment on Aspergillus niger; 50 µg/mL in the experiment on Candida albicans. This compound also had an MIC with Bacillus cereus of 6.3 µg/mL.
In turn, `O=C(Nc1ccc(C(=O)O)cc1)OCc1cn(-c2cc3nc(C(=O)O)c(=O)[nH]c3cc2[N+](=O)[O-])cn1` had a negative logarithm of the Ki (pKi) in [7] of 7.66.
As for `C=Cc1c(Br)cc2nc(O)c(O)nc2c1CN(C)CC(=O)O`, the pIC50 in experiment [2] was 5.93.
In the case of `C[C@H]1Cc2cc(Br)cc3[nH]c(=O)c(=O)n(c23)C1CC(=O)Nc1ccccc1` (stereo partly specified), the negative-log Ki (pKi) in experiment [3] was 8.52.
As to `CCOC(=O)CN(C)Cc1c(CC)c([N+](=O)[O-])cc2nc(O)c(O)nc12`, the pIC50 in experiment [1] was below 5.00; in [2] it was 5.80.
As for `CCCCCCCCCn1c(=O)c2c(-c3ccccc3)nc(-c3ccc[n+](Cc4ccccc4)c3)n2c2ccccc21.[Cl-]`, the MBC in the experiment with Escherichia coli was above 500 µg/mL; in experiment [6], above 500 µg/mL; against Staphylococcus aureus, 50 µg/mL; against Pseudomonas aeruginosa it was above 500 µg/mL; in the experiment on Aspergillus niger it was above 500 µg/mL; in the experiment with Candida albicans, 500 µg/mL. The compound also returned an MBC against Bacillus cereus above 500 µg/mL. The minimum inhibitory concentration (MIC) against Escherichia coli was above 500 µg/mL; in experiment [6], 500 µg/mL; against Staphylococcus aureus, 1.95 µg/mL; in the experiment on Pseudomonas aeruginosa, above 500 µg/mL; against Aspergillus niger, above 500 µg/mL; against Candida albicans, 3.9 µg/mL. In the experiment on Bacillus cereus, this compound came in with a minimal inhibitory concentration (MIC) of 12.5 µg/mL.
Turning to `O=C1CSC(c2ccc([N+](=O)[O-])cc2)N1c1ccc2nc(Cc3ccc(O)cc3)c(=O)[nH]c2c1` (stereo unspecified), in experiment [8], the negative-log IC50 (pIC50) was 4.98.
As to `CCOC(=O)c1nc2cc(F)ccc2[nH]c1=O`, the lowest concentration to inhibit growth against Pseudomonas aeruginosa (MIC) was 250 µg/mL (≈ 1060 µM).
In the case of `O=c1[nH]c2c([N+](=O)[O-])c(Cl)c(Cl)c([N+](=O)[O-])c2nc1Oc1ccccc1`, in experiment [4], the negative-log IC50 (pIC50) is 5.81.
For the compound `CCCCCCCCC[n+]1cccc(-c2nc(-c3ccccc3)c3c(=O)n(CCCCCC)c4ccccc4n23)c1.[Br-]`, the MBC is 500 µg/mL against Escherichia coli; 250 µg/mL in [6]; 5 µg/mL against Staphylococcus aureus; above 500 µg/mL in the experiment with Pseudomonas aeruginosa; above 500 µg/mL against Aspergillus niger; 50 µg/mL with Candida albicans. This compound also displayed an MBC in the experiment with Bacillus cereus of 50 µg/mL. In addition, the minimum inhibitory concentration (MIC) in the experiment on Escherichia coli is 500 µg/mL; in experiment [6] it was 250 µg/mL; against Staphylococcus aureus, 0.97 µg/mL; in the experiment on Pseudomonas aeruginosa, above 500 µg/mL; against Aspergillus niger, above 500 µg/mL; in the experiment with Candida albicans, 0.97 µg/mL. This compound also gave an MIC in the experiment with Bacillus cereus of 0.97 µg/mL.
On to `CCc1c([N+](=O)[O-])cc2nc(O)c(O)nc2c1CN(C)CC(=O)O`, for which the results for the pIC50 in experiment [1] and in experiment [2] were 6.33 and 6.85, respectively.
With `O=C(O)c1nc2ccc(Cl)cc2[nH]c1=O`, in the experiment with Escherichia coli, the minimal inhibitory concentration (MIC) worked out at 125 µg/mL (≈ 557 µM).
As to `O=C(O)Cn1c(=O)c(CCc2ccccc2)nc2ccccc21`, the pIC50 in [4] was 6.84. The compound further had an inhibition in [5] of 22%.
With `O=C(Nc1ccc(C(=O)O)cc1)OCc1cn(-c2cc3nc(C(=O)O)c(O)nc3cc2C(F)(F)F)cn1`, the pKi in [7] was 7.80.
In the case of `O=c1[nH]c2cc([N+](=O)[O-])c(-n3ccnc3)nc2n2cnnc12`, in [2], the pKi was 6.72.
In the experiment on Pseudomonas aeruginosa, `CCOC(=O)c1nc2cc(F)c(N3CCOCC3)cc2[nH]c1=O` displayed an MIC of 250 µg/mL (≈ 778 µM).
As to `NC(Cn1c(=O)c(=O)[nH]c2ccccc21)C(=O)O` (stereo unspecified), the pIC50 in experiment [2] is 6.16.
For `CCc1nc2cc(C(F)(F)F)ccc2[nH]c1=O`, the minimum inhibitory concentration (MIC) in the experiment with Pseudomonas aeruginosa was 62.5 µg/mL (≈ 258 µM).
In turn, `O=C(O)c1ccn(-c2cc3c(cc2[N+](=O)[O-])nc(O)c2nc(C(=O)O)nn23)c1` had a pKi in experiment [2] of 7.72.
On to `O=C(O)C[C@H]1CCc2cc(Br)cc3[nH]c(=O)c(=O)n1c23`, for which, in [3], the pKi was 8.02.
Consider `CC[C@H]1Cc2cc(Br)cc3[nH]c(=O)c(=O)n(c23)C1CC(=O)O` (stereo partly specified), for which the pKi in experiment [3] is 8.85.
On to `CCCCCCn1c(=O)c2c(-c3ccccc3)nc(-c3ccc[n+](Cc4ccccc4)c3)n2c2ccccc21.[Cl-]`, for which the MBC is above 500 µg/mL with Escherichia coli; above 500 µg/mL in [6]; 50 µg/mL with Staphylococcus aureus; above 500 µg/mL in the experiment on Pseudomonas aeruginosa; above 500 µg/mL in the experiment on Aspergillus niger; 500 µg/mL in the experiment on Candida albicans. The MBC against Bacillus cereus is above 500 µg/mL. The MIC was above 500 µg/mL in the experiment with Escherichia coli; 500 µg/mL in experiment [6]; 0.97 µg/mL against Staphylococcus aureus; above 500 µg/mL in the experiment on Pseudomonas aeruginosa; above 500 µg/mL in the experiment on Aspergillus niger; 7.8 µg/mL in the experiment on Candida albicans. Also, inhibition of growth in the experiment with Bacillus cereus (MIC) required 6.3 µg/mL.
In the case of `CCOC(=O)c1nc2cc(C(F)(F)F)ccc2[nH]c1=O`, the MIC amounted to 125 µg/mL (≈ 437 µM) against Escherichia coli and 250 µg/mL (≈ 873 µM) in the experiment with Staphylococcus aureus.
For the compound `CCOC(=O)c1nc2c(O)nc3cc([N+](=O)[O-])c(-n4ccc(C(=O)O)c4)cc3n2n1`, the pKi in [2] was 7.17.
Regarding `O=C(C[C@@H]1CCc2cc(Br)cc3[nH]c(=O)c(=O)n1c23)Nc1ccccc1`, the pKi in [3] is 9.02.
Turning to `CCCCCCCCC[n+]1cccc(-c2nc(-c3ccccc3)c3c(=O)n(CCCCCC)c4ccccc4n23)c1.[I-]`, the MBC against Escherichia coli was above 500 µg/mL; in [6], above 500 µg/mL; in the experiment on Staphylococcus aureus it was 5 µg/mL; in the experiment with Pseudomonas aeruginosa, above 500 µg/mL; against Aspergillus niger, above 500 µg/mL; with Candida albicans it was 500 µg/mL. The same compound gave an MBC in the experiment with Bacillus cereus of 500 µg/mL. In addition, the minimum inhibitory concentration (MIC) in the experiment with Escherichia coli is above 500 µg/mL; in [6], above 500 µg/mL; in the experiment on Staphylococcus aureus, 0.78 µg/mL; in the experiment on Pseudomonas aeruginosa, above 500 µg/mL; against Aspergillus niger it was above 500 µg/mL; against Candida albicans it was 500 µg/mL. Moreover, the MIC against Bacillus cereus is 0.78 µg/mL.
As to `CCc1c(Br)cc2nc(O)c(O)nc2c1CN(C)CC(=O)O`, the pIC50 in experiment [2] was 5.63.
In experiment [3], `C[C@H]1Cc2cc(Cl)cc3[nH]c(=O)c(=O)n(c23)C1CC(=O)O` (stereo partly specified) had a pKi of 8.36.
In experiment [4], `O=C(O)Cn1c(=O)c(Oc2ccc(Br)cc2)nc2ccc(F)cc21` had a pIC50 of 7.94. The compound further came in with an inhibition in experiment [5] of 30.7%.
Turning to `O=C(O)Cn1c(=O)c(Oc2ccc(Br)cc2)nc2cc(Br)ccc21`, in experiment [4], the pIC50 was 7.79. In [5], the inhibition was 25.6%.
In turn, `C[C@H]1Cc2cc(Cl)cc3[nH]c(=O)c(=O)n(c23)C1CC(=O)Nc1ccccc1` (stereo partly specified) showed a pKi in experiment [3] of 8.51.
With `NC(CNC(=O)C(=O)O)C(=O)O` (stereo unspecified), the negative logarithm of the IC50 (pIC50) in [2] is 5.89.
In experiment [3], `O=C(O)C[C@@H]1CCc2cc(Br)cc3[nH]c(=O)c(=O)n1c23` gave a pKi of 8.64.
